These results are taken from patent US6169181A, “Compounds useful to treat retroviral infections” (Pharmacia & Upjohn Company, priority 1998, dated 2001).

Molecules are shown by their SMILES. Where “and” joins values, the source holds several entries; their conditions need not be identical. Identical values can stand only once. Like-named read-outs stand apart in the source and are kept apart here.

For orientation: Ki means the dissociation constant of the complex between target and ligand, obtained from inhibition or displacement.

The target of assay [1] is T1, HIV-1 protease (Human immunodeficiency virus type 1 group M subtype B, UniProt P04585). Nature of the assay: biochemical. As to the method: The HIV protease screening assay is based on fluorescently labeled substrate which can be resolved from nonlabeled cleavage product using special beads coated with streptavidin. The substrate is biotinylated at the amino terminal arginine and fluorescently labeled with fluorescein isothiocynate (FITC) at the carboxyl terminal lysine. […] Substrate ([…] of 0.2 μM), sample (10 μl of desired concentraion), and enzyme (10 μl of 0.1 μM) are added to a 96 well pandex plate. The assay is run in 0.1 M sodium acetate buffer at pH 5.5 in the presence of 1.0 M sodium chloride and 0.05% NP-40 with incubated in the dark for one hour at room temperature. Strepavidin coated polystyrene beads {40 μl of 0.1% (w/v)} are added and the plate is incubated in the dark for an additional half hour. The labeled cleavage product is separated from the unreacted substrate via filtration and is read on the Idexx screen machine. The data are analyzed by appropriate computer algorithms to ascertain percent inhibition values.
Determination of Ki values utilizes the same materials and equipment employed for percent inhibition studies. Two-fold serial dilutions are made for a given inhibitor from 2, 3 or 4 starting concentrations with a total of 24, 36 or 48 individual inhibitor concentrations. These dilutions are performed utilizing the BioMek robotics system. The assay consists of 10 μL of 40 nM HIV-1 protease, 10 μL of the various inhibitor concentrations, and 20 μL of 200 μM substrate (40 μL total). The reaction is allowed to proceed for 90 min at room temperature, terminated with 40 μL of avidin beads and processed (supra vide). An inhibitor with a known K; is run in parallel to verify the validity of the assay. The data is processed utilizing a computer program employing a nonlinear least square analysis of the data to generate the Ki values.

For assay [2], the target named is T1, HIV-1 protease. Nature of the assay: biochemical. As to conditions: for inhibition at 0.123 µM / inhibition at 0.37 µM / inhibition at 1.1 µM / inhibition at 3.3 µM / inhibition at 10 µM / inhibition at 30 µM: read-out: Protease % Inhib. On the procedure:
The HIV protease screening assay is based on fluorescently labeled substrate which can be resolved from nonlabeled cleavage product using special beads coated with streptavidin. The substrate is biotinylated at the amino terminal arginine and fluorescently labeled with fluorescein isothiocynate (FITC) at the carboxyl terminal lysine. This assay has been employed to detect novel, nonpeptidic inhibitors of HIV-1 protease. Substrate (20 μM of 0.2 μM), sample (10 μl of desired concentraion), and enzyme (10 μl of 0.1 μM) are added to a 96 well pandex plate. The assay is run in 0.1 M sodium acetate buffer at pH 5.5 in the presence of 1.0 M sodium chloride and 0.05% NP-40 with incubated in the dark for one hour at room temperature. Strepavidin coated polystyrene beads {40 μl of 0.1% (w/v)} are added and the plate is incubated in the dark for an additional half hour. The labeled cleavage product is separated from the unreacted substrate via filtration and is read on the Idexx screen machine. The data are analyzed by appropriate computer algorithms to ascertain percent inhibition values.

Where [3] appears, read: Table I, read-out: HIV Protease FITC Assay Ki.
[4] abbreviates: read-out: HIV Protease FITC Assay Ki.

For the molecule `CN(c1cccc(C(c2c(O)c3c(oc2=O)CCCCCC3)C2CC2)c1)S(=O)(=O)c1cn(C)cn1` (stereo not shown) [Example 195, N-methyl-N-[3-[cyclopropyl(5,6,7,8,9,10-hexahydro-4-hydroxy-2-oxo-2H-cycloocta[b]pyran-3-yl)methyl]phenyl]-1H-Imidazole-1-methyl-sulfonamide], in assay [1] (setting [3]), the Ki was 3.7 nM. Also, the inhibition at 0.123 µM in assay [2] (Table I, Dose 0.123 μM) was 60.9%. In addition, in assay [2] (Table I, Dose 0.370 μM), the inhibition at 0.37 µM is 85.1%. For the same molecule, the inhibition at 1.1 µM in assay [2] (Table I, Dose 1.100 μM) amounted to 90.8%. Besides, the inhibition at 3.3 µM in assay [2] (Table I, Dose 3.300 μM) is 90.8%. The inhibition at 10 µM in assay [2] (Table I, Dose 10.000 μM) came to 93.1%. Further, the inhibition at 30 µM in assay [2] (Table I, Dose 30.000 μM) came out at 92.7%.
Regarding `CCCC1(CCc2ccccc2)CC(O)=C(C(c2cccc(NS(=O)(=O)c3ccc(C(F)(F)F)cn3)c2)C(C)(C)C)C(=O)O1` (stereo not shown) [Example 293, 5-Trifluoromethyl-N-[3-[1-[5,6-dihydro-4-hydroxy-2-oxo-6-(2-phenethyl)-6-n-propyl-2H-pyran-3-yl]-2,2-dimethylpropyl]-phenyl]-2-pyridinesulfonamide], the inhibitory constant (Ki) in assay [1] (Table II, enzyme HIV-1, read-out: FITC KI) stood at 4.3 nM. The “PROTEASE % INHIB.” value came out at 53.45% in assay [2] (Table II, enzyme HIV-1, DOSE 0.123 (unit not given)); 77.51% in assay [2] (Table II, enzyme HIV-1, DOSE 0.370 (unit not given)); 94.18% in assay [2] (Table II, enzyme HIV-1, DOSE 1.100 (unit not given)); 103.03% in assay [2] (Table II, enzyme HIV-1, DOSE 3.300 (unit not given)); 97.41% in assay [2] (Table II, enzyme HIV-1, DOSE 10.000 (unit not given)); 92.01% in assay [2] (Table II, enzyme HIV-1, DOSE 30.000 (unit not given)).
Consider `CCCC1(CCc2ccccc2)CC(O)=C(C(c2cccc(NS(=O)(=O)c3ccc(C#N)cc3)c2)C2CC2)C(=O)O1` (stereo not shown) [Example 58], for which the Ki in assay [1] (setting [3]) was determined as 3.8 nM. The inhibition at 0.123 µM in assay [2] (Table I, Dose 0.123 μM) was found to be 64.9%. The inhibition at 0.37 µM in assay [2] (Table I, Dose 0.370 μM) amounted to 83.7%. Besides, the inhibition at 1.1 µM in assay [2] (Table I, Dose 1.100 μM) amounted to 94.2%. Further, the inhibition at 3.3 µM in assay [2] (Table I, Dose 3.300 μM) amounted to 95.9%. The inhibition at 10 µM in assay [2] (Table I, Dose 10.000 μM) is 100%. In assay [2] (Table I, Dose 30.000 μM), the inhibition at 30 µM stood at 89.8%.
For the molecule `CCCC1(CCC)CC(O)=C(C(CC)c2cccc(NS(=O)(=O)c3cn(C)cn3)c2)C(=O)O1` (single isomer, unassigned) [Example 55, (S or R)-N-[3-[1-(4-hydroxy-2-oxo-6,6-dipropyl-5,6-dihydro-2H-pyran-3-yl)-propyl]-phenyl]-1-methyl-1H-imidazole-4-sulfonamide], the Ki in assay [1] (setting [3]) turned out to be 1.7 nM. For the same molecule, the “PROTEASE % INHIB.” value is recorded as less than 10% in assay [2] (Table I, Dose 0.123 μM); 18.77% in assay [2] (Table I, Dose 0.370 μM); 58.27% in assay [2] (Table I, Dose 1.100 μM); 86.98% in assay [2] (Table I, Dose 3.300 μM); 98.33% in assay [2] (Table I, Dose 10.000 μM); 85.88% in assay [2] (Table I, Dose 30.000 μM).
In the case of `Cn1cnc(S(=O)(=O)Nc2cccc(C(C3=C(O)CC(CCc4ccc(F)cc4)(CCc4ccc(F)cc4)OC3=O)C(C)(C)C)c2)c1` (stereo not shown) [Example 256, N-[3-{1-(4-Hydroxy-5,6-dihydro-2-oxo-6,6-bis(2-(4-fluorophenyl)ethyl)-2H-pyran-3-yl)-2,2-dimethylpropyl}phenyl]-1-methyl-1H-imidazole-4-sulfonamide], the Ki in assay [1] (setting [3]) stood at 8.3 nM.
Turning to `CCC(C1=C(O)CC(CCC2CC2)(CCC2CC2)OC1=O)c1cccc(NS(=O)(=O)c2cn(C)cn2)c1` (stereo not shown) [Example 246, N-[3-(1-[6,6-Bis-(2-cyclopropyl-ethyl)-5,6-dihydro-4-hydroxy-2-oxo-2H-pyran-3-yl]propyl)phenyl]-1-methyl-1H-imidazole-4-sulfonamide], the Ki in assay [1] (setting [3]) is 1.7 nM.
As to `CCCC1(CCc2ccc(F)cc2)CC(O)=C(C(CC)c2cccc(NS(=O)(=O)c3cn(C)cn3)c2)C(=O)O1` (stereo not shown) [Example 254, N-[3-{1-(4-Hydroxy-5,6-dihydro-2-oxo-6-(2-(4-fluorophenyl)ethyl)-6-propyl-2H-pyran-3-yl)propyl}phenyl]-1-methyl-1H-imidazole-4-sulfonamide], in assay [1] (setting [4]), the inhibition constant Ki was found to be 3 nM.
In the case of `CCCC1(CCc2ccc(F)cc2)CC(O)=C(C(CC)c2cccc(NS(=O)(=O)c3ccc(C#N)cn3)c2)C(=O)O1` (stereo not shown) [Example 255, N-[3-{1-(4-Hydroxy-5,6-dihydro-2-oxo-6-(2-(4-fluorophenyl)ethyl)-6-propyl-2H-pyran-3-yl)propyl}phenyl]-5-cyanopyridine-2-sulfonamide], in assay [1] (setting [3]), the Ki came out at 1.6 nM.
On the same count and under the same terms, in the case of `CC(C)(C)C(C1=C(O)CC(CCc2ccc(F)cc2)(CCc2ccc(F)cc2)OC1=O)c1cccc(NS(=O)(=O)c2ccc(C#N)cn2)c1` (stereo not shown) [Example 257, N-[3-{1-(4-Hydroxy-5,6-dihydro-2-oxo-6,6-bis(2-(4-fluorophenyl)ethyl)-2H-pyran-3-yl)-2,2-dimethylpropyl}phenyl]-5-cyanopyridine-2-sulfonamide] it was 9 nM.
Consider `Cn1cnc(S(=O)(=O)Nc2cccc(C(c3c(O)cc(C(CC4CC4)CC4CC4)oc3=O)C3CC3)c2)c1` (stereo not shown) [98 First Compound], for which the Ki in assay [1] (setting [4]) is 0.74 nM and 0.8 nM.
Consider `CCC(C1=C(O)CC(CCC2CC2)(CCC2CC2)OC1=O)c1cccc(NS(=O)(=O)c2ccc(C#N)cn2)c1` (stereo not shown) [Example 247, N-[3-(1-[6,6-Bis-(2-cyclopropyl-ethyl)-5,6-dihydro-4-hydroxy-2-oxo-2H-pyran-3-yl]propyl)phenyl]-5-cyano-2-pyridinesulfonamide], for which the Ki in assay [1] (setting [3]) amounted to 1.2 nM.
For `CCC(C1=C(O)CC(CC)(c2cccc(NS(=O)(=O)c3cn(C)cn3)c2)OC1=O)c1cccc(NS(=O)(=O)c2cn(C)cn2)c1` (stereo not shown) [Example 248, N-(3-[1-(6-Ethyl-5,6-dihydro-4-hydroxy-6-[3-([(1-methyl-1H-imidazol-4-yl)sulfonyl]amino)phenyl]-2-2H-pyran-3-yl)propyl]phenyl)-1-methyl-1H-imidazole-4-sulfonamide], the Ki in assay [1] (setting [3]) stood at 4.7 nM.
Turning to `CCC(C1=C(O)CC(CCc2ccc(F)cc2)(CCc2ccc(F)cc2)OC1=O)c1cccc(NS(=O)(=O)c2ccc(C#N)cn2)c1` (stereo not shown) [Example 259, N-[3-{1-(4-Hydroxy-5,6-dihydro-2-oxo-6,6-bis(2-(4-fluorophenyl)ethyl)-2H-pyran-3-yl)propyl}phenyl]-5-cyanopyridine-2-sulfonamide], in assay [1] (setting [3]), the Ki worked out at 2.2 nM.
In the case of `CCC(C1=C(O)CC(CC)(c2cccc(NS(=O)(=O)c3ccc(C#N)cn3)c2)OC1=O)c1cccc(NS(=O)(=O)c2ccc(C#N)cn2)c1` (stereo not shown) [Example 249, 5-Cyano-N-(3-[1-(6-[3-([(5-cyano-2-pyridinyl)sulfonyl]amino)phenyl]-6-ethyl-5,6-dihydro-4-hydroxy-2-oxo-2H-pyran-3-yl)propyl]phenyl)-2-pyridinesulfonamide], the Ki in assay [1] (setting [4]) was 0.75 nM.
With `CCC(C1=C(O)CC(CCc2ccc(F)cc2)(CCc2ccc(F)cc2)OC1=O)c1cccc(NS(=O)(=O)c2cn(C)cn2)c1` (stereo not shown) [Example 258, N-[3-{1-(4-Hydroxy-5,6-dihydro-2-oxo-6,6-bis(2-(4-fluorophenyl)ethyl)-2H-pyran-3-yl)propyl}phenyl]-1-methyl-1H-imidazole-4-sulfonamide], the inhibition constant Ki in assay [1] (setting [3]) worked out at 4.3 nM.
For the molecule `Cn1cnc(S(=O)(=O)Nc2cccc(C(c3c(O)cc(C(CC4CC4)CC4CC4)oc3=O)C3CC3)c2)c1` (stereo not shown) [98 Second Compound], the Ki in assay [1] (setting [4]) is 0.84 nM and 0.8 nM.
As to `CCCC1(CCC)CC(O)=C(C(c2cccc(NS(=O)(=O)c3ccc(C#N)cn3)c2)C(C)(C)C)C(=O)O1` (stereo not shown) [Example 260, N-[3-{1-(4-Hydroxy-5,6-dihydro-2-oxo-6,6-dipropyl-2H-pyran-3-yl)-2,2-dimethylpropyl}phenyl]-5-cyanopyridine-2-sulfonamide], the inhibition constant (Ki) in assay [1] (setting [3]) was 2 nM.
For the molecule `CCCC1(CCC)CC(O)=C(C(c2cccc(NS(=O)(=O)c3cn(C)cn3)c2)C(C)(C)C)C(=O)O1` (stereo not shown) [Example 261, N-[3-{1-(4-Hydroxy-5,6-dihydro-2-oxo-6,6-dipropyl-2H-pyran-3-yl)-2,2-dimethylpropyl}phenyl]-1-methyl-1H-imidazole-4-sulfonamide], the Ki in assay [1] (setting [3]) stood at 0.87 nM.
As to `CCC(C1=C(O)C2CCCCC2OC1=O)c1cccc(NS(=O)(=O)c2ccc(C#N)cc2)c1` (stereo not shown) [Example 371], in assay [1] (read-out: FITC KI), the inhibitory constant (Ki) was 15.4 nM.
